Measured values reported in patent US11370847B2, “Single domain antibodies directed against intracellular antigens” (Singh Biotechnology, LLC, priority 2014, dated 2022).
“And” between values parts separate entries of the source, which are not always exact repeats. Identical values can stand only once.

Experiments:
EBOv (Makon) = details: HFF; EBOV (Makona); 48 hours
SJSA-1 xenograft = assay: SJSA-1 Bone Osteosarcoma subcutaneous xenograft model
[1] = SBT-100 5.0 mg/kg BID 14 days IP, Doxorubicin 7.0 mg/kg days 1, 8 and 14 IP
[2] = study day 9 post implant, IP, SBT-100 5.0 mg/kg BIDx14 and/or Doxorubicin 7.0 mg/kg days 1, 8, 14
[3] = study day 13 post implant, IP, SBT-100 5.0 mg/kg BIDx14 and/or Doxorubicin 7.0 mg/kg days 1, 8, 14
[4] = study day 16 post implant, IP, SBT-100 5.0 mg/kg BIDx14 and/or Doxorubicin 7.0 mg/kg days 1, 8, 14
[5] = study day 20 post implant, IP, SBT-100 5.0 mg/kg BIDx14 and/or Doxorubicin 7.0 mg/kg days 1, 8, 14
[6] = study day 21 post implant, IP, SBT-100 5.0 mg/kg BIDx14 and/or Doxorubicin 7.0 mg/kg days 1, 8, 14
[7] = study day 23 post implant, IP, SBT-100 5.0 mg/kg BIDx14 and/or Doxorubicin 7.0 mg/kg days 1, 8, 14
[8] = study day 27 post implant, IP, SBT-100 5.0 mg/kg BIDx14 and/or Doxorubicin 7.0 mg/kg days 1, 8, 14

In the case of “anti-STAT3 VHH13: anti-STAT3 single-domain antibody, SEQ ID NO:3; bacterially produced, referred to as SBT-100”, the EC50 (EBOv (Makon)) is reported as 38.36 ug/m, the EC90 (EBOv (Makon)) is reported as 66.43 µg/mL and the “% T/C” value (SJSA-1 xenograft; [1]) is reported as 69.91%. The “mean tumor growth inhibition at the end of the study” value (SJSA-1 xenograft; [1]) was 25.23%, the “mean tumor size (±S.E.) at termination” value (SJSA-1 xenograft; [1]) was 1055.68±307.10 and the “mean tumor size (±SE) at the last day of dosing” value (SJSA-1 xenograft; [1]) was 334.52±114.62. For the same substance, the “mean tumor size compared to control” value (SJSA-1 xenograft; SJSA-1 xenograft) was “non-significant decrease in mean tumor size”, the tumor doubling time (SJSA-1 xenograft; control 8.22) was 8.84 and the “% Inh Mean” value (SJSA-1 xenograft; [2]) was 21.06%. For the same substance, the “% Inh Med” value (SJSA-1 xenograft; [2]) was 11.92%, the “Mean Abs (tumor measurement)” value (SJSA-1 xenograft; [2]) was 31.31 mm^3 and the “Median Abs (tumor measurement)” value (SJSA-1 xenograft; [2]) was 19.98 mm^3. For the same substance, the “Tumor Measurements, single animals” value (SJSA-1 xenograft; [2]) was 15.75 mm^3 and 19.98 mm^3 and 0.00 mm^3 and 69.47 mm^3 and 10.46 mm^3 and 79.76 mm^3 and 23.77 mm^3, the “% Inh Mean” value (SJSA-1 xenograft; [3]) was −45.34% and the “% Inh Med” value (SJSA-1 xenograft; [3]) was −44.59%. The “Mean Abs (tumor measurement)” value (SJSA-1 xenograft; [3]) was 115.14 mm^3, the “Median Abs (tumor measurement)” value (SJSA-1 xenograft; [3]) was 85.60 mm^3 and the “Tumor Measurements, single animals” value (SJSA-1 xenograft; [3]) was 106.64 mm^3 and 28.26 mm^3 and 0.00 mm^3 and 126.45 mm^3 and 38.25 mm^3 and 420.78 mm^3 and 85.60 mm^3. For the same substance, the “% Inh Mean” value (SJSA-1 xenograft; [4]) was 12.69%, the “% Inh Med” value (SJSA-1 xenograft; [4]) was 14.60% and the “% T/C” value (SJSA-1 xenograft; [4]) was 71.23%. For the same substance, the “Mean Abs (tumor measurement)” value (SJSA-1 xenograft; [4]) was 151.57 mm^3, the “Median Abs (tumor measurement)” value (SJSA-1 xenograft; [4]) was 139.83 mm^3 and the “Tumor Measurements, single animals” value (SJSA-1 xenograft; [4]) was 139.83 mm^3 and 36.05 mm^3 and 11.02 mm^3 and 200.95 mm^3 and 187.82 mm^3 and 358.90 mm^3 and 126.46 mm^3. The “% Inh Mean” value (SJSA-1 xenograft; [5]) was 18.11%, the “% Inh Med” value (SJSA-1 xenograft; [5]) was 24.54% and the “% T/C” value (SJSA-1 xenograft; [5]) was 73.26%. For the same substance, the “Mean Abs (tumor measurement)” value (SJSA-1 xenograft; [5]) was 252.90 mm^3, the “Median Abs (tumor measurement)” value (SJSA-1 xenograft; [5]) was 191.62 mm^3 and the “Tumor Measurements, single animals” value (SJSA-1 xenograft; [5]) was 191.62 mm^3 and 70.70 mm^3 and 59.97 mm^3 and 616.53 mm^3 and 180.38 mm^3 and 450.45 mm^3 and 200.68 mm^3. The “% Inh Mean” value (SJSA-1 xenograft; [6]) was 16.23%, the “% Inh Med” value (SJSA-1 xenograft; [6]) was 35.42% and the “% T/C” value (SJSA-1 xenograft; [6]) was 76.22%. For the same substance, the “Mean Abs (tumor measurement)” value (SJSA-1 xenograft; [6]) was 334.52 mm^3, the “Median Abs (tumor measurement)” value (SJSA-1 xenograft; [6]) was 198.86 mm^3 and the “Tumor Measurements, single animals” value (SJSA-1 xenograft; [6]) was 271.05 mm^3 and 115.97 mm^3 and 96.53 mm^3 and 901.18 mm^3 and 155.51 mm^3 and 602.51 mm^3 and 198.86 mm^3. For the same substance, the “% Inh Mean” value (SJSA-1 xenograft; [7]) was 8.48%, the “% Inh Med” value (SJSA-1 xenograft; [7]) was 33.12% and the “% T/C” value (SJSA-1 xenograft; [7]) was 79.47%. For the same substance, the “Mean Abs (tumor measurement)” value (SJSA-1 xenograft; [7]) was 477.43 mm^3, the “Median Abs (tumor measurement)” value (SJSA-1 xenograft; [7]) was 308.49 mm^3 and the “Tumor Measurements, single animals” value (SJSA-1 xenograft; [7]) was 308.49 mm^3 and 201.00 mm^3 and 185.39 mm^3 and 1,359.67 mm^3 and 197.83 mm^3 and 756.79 mm^3 and 332.80 mm^3. For the same substance, the “% Inh Mean” value (SJSA-1 xenograft; [8]) was 25.23%, the “% Inh Med” value (SJSA-1 xenograft; [8]) was 37.90% and the “% T/C” value (SJSA-1 xenograft; [8]) was 69.91%. For the same substance, the “Mean Abs (tumor measurement)” value (SJSA-1 xenograft; [8]) was 1,055.68 mm^3, the “Median Abs (tumor measurement)” value (SJSA-1 xenograft; [8]) was 707.34 mm^3 and the “Tumor Measurements, single animals” value (SJSA-1 xenograft; [8]) was 707.34 mm^3 and 474.71 mm^3 and 380.72 mm^3 and 2,500.29 mm^3 and 351.21 mm^3 and 1,699.89 mm^3 and 1,275.63 mm^3.
